# Laboratory results from US10036036B1, “Compositions and methods for deploying a transgenic refuge as a seed blend” (priority 2007, dated 2018).
# Tested on: western and northern corn rootworm
# Experiment: Field trial (Example 3): corn rootworm damage by Iowa class, percent of control and synergy threshold
# Type: in vivo
# Experimental: A field trial was established and completed in accordance with pertinent protocols and in conformance with USDA notification requirements. The purpose of the trial was to determine the efficacy of transgenic event Cry3Bb.11231 in corn seed in combination with corn rootworm seed treatments using imidacloprid.
# All seed treatments with pesticides were carried out as described in Example 1. In seed treatment number 1 and 2, Gaucho® was used for wire worm protection, but at levels sufficiently low that it would be expected to have no effect on corn rootworms (i.e., at a treatment level of about 60 gm of active/100 kg seed or 0.16 mg active/kernel), otherwise, seed receiving treatment number 2 had only transgenic event Cry3Bb.11231 and no pesticide treatment that would be expected to be effective against corn rootworm.
# For seeds having treatments numbered 3 through 5, the pesticides were applied by the methods described in Example 1. For seeds having treatment numbers 6 and 7, commercially available Force® 3 G and Lorsban® 15 G were applied to the soil in a 5″ band at the time of sowing. The levels of application are as shown and are within the ranges recommended for standard commercial practice.
# Corn seeds to be tested were planted and grown at four different locations across several Midwestern states in the United States corn belt according to the protocol described above.
# The determination of damage by corn root worm was made according to the protocol described in Example 2.
# The combination of imidacloprid seed treatment with corn seed having a Cry3Bb.11231 transgenic event was tested for possible synergy at a level of rootworm damage of 3-6. In the first test, shown in Table 2, the percentage of test plants having damage levels of from 3 to 6, on the Iowa 1-6 Scale, was determined for the control and for seeds treated with the pesticide at two levels, and for seeds having the transgenic event, alone and in combination. The following formula was then used to calculate a “synergy threshold”: (% of control Cry3Bb.11231)*(% of control imidacloprid treatment)/100.
# This threshold was compared against the percent of control for the treatment combination (i.e., Cry3Bb.11231 with imidacloprid @ 400 gm/100 kg). If the treatment combination percent of control was below the threshold, then it was concluded that there was synergy.
# It was believed that the measurement of rootworm damage at higher damage levels (i.e., levels 3-6) is a useful indicator that correlates with subsequent yield loss due to such damage. The reason for this is that rootworm damage at levels 1 and 2 seldom causes corn plants to fall over and lodge, and such minimal root loss is not believed to reduce the number or weight of kernels per ear. However, root damage at levels of 3 and above increasingly causes lodging and loss of yield. Therefore, it is believed that the summed damage levels of 3-6 (and in some cases, 4-6 and 5 and 6), provides a useful indication of the effect of corn rootworm damage on subsequent corn yield.
smiles,measurement,setting,value
"O=[N+]([O-])NC1=NCCN1Cc1ccc(Cl)nc1 [Imidacloprid, 1-[(6-chloro-3-pyridinyl)methol]-N-nitro-2-imidazolidinimime]",PERCENT OF CONTROL,"Table 2, plants with damage levels 3-6 relative to isohybrid control",80.5%
same,NUMBER OF PLANTS HAVING 3-6 DAMAGE LEVEL,"Table 3, damage levels 3-6 on Iowa 1-6 scale",71.7
same,PERCENT OF CONTROL,"Table 3, damage levels 3-6 relative to untreated control",80.5%
same,CORN ROOTWORM DAMAGE IN EACH IOWA CLASS (IOWA 1-6 SCALE): 1,count of plants in Iowa class 1,3
same,CORN ROOTWORM DAMAGE IN EACH IOWA CLASS (IOWA 1-6 SCALE): 2,count of plants in Iowa class 2,15
same,CORN ROOTWORM DAMAGE IN EACH IOWA CLASS (IOWA 1-6 SCALE): 3,count of plants in Iowa class 3,36
same,CORN ROOTWORM DAMAGE IN EACH IOWA CLASS (IOWA 1-6 SCALE): 4,count of plants in Iowa class 4,21
same,CORN ROOTWORM DAMAGE IN EACH IOWA CLASS (IOWA 1-6 SCALE): 5,count of plants in Iowa class 5,5
same,CORN ROOTWORM DAMAGE IN EACH IOWA CLASS (IOWA 1-6 SCALE): 6,count of plants in Iowa class 6,0
